Broadly, the pest or weed control is the degree to which the test organism was suppressed or injured, in per cent. Broadly, the inhibition is the percentage by which the read-out fell short of the control. By melting point is commonly meant the temperature, or range, at which the solid turns liquid.

Read-outs that look alike come from different tables or passages of the source.

Data set [1] concerns Phytophthora infestans. Format: in vivo, Phytophthora infestans on tomato. The settings on record: hydrazone 50 ppm + 50 μM CuCl2.2H2O, applied 24 h before inoculation, assessed 7 days after inoculation, tomato.
Data set [2] has as its system Leptosphaeria nodorum (glume blotch of wheat). Briefly: Cu-hydrazone complexes versus parent hydrazones against glume blotch of wheat (Example 32, Table 8). Format: in vivo, Leptosphaeria nodorum on wheat (cultivar Yuma). Conditions: Parastagonospora nodorum, 200 ppm spray, inoculated after 24 h.
In data set [3] the test system is Leptosphaeria nodorum (LEPTNO). Briefly: Isolated metal-hydrazone complexes versus parent hydrazones, in vitro, Leptosphaeria nodorum (Example 31, Table 7). The data set is classed as cell-based. Conditions: Parastagonospora nodorum; 0.1 μg/mL; copper-minus medium; 72 h.
The test system of data set [4] is Leptosphaeria nodorum (LEPTNO). Nature of the data set: In vitro fungitoxicity of hydrazones with and without copper towards Leptosphaeria nodorum (Example 26). The data set is classed as cell-based. The settings on record: 72 h at 25° C.; for LEPTNO % Inhn. Plus Copper Observed: copper-plus medium (CuCl2.2H2O).
A further data set deals with Phytophthora capsici. Nature of the data set: In vitro fungitoxicity of hydrazones with and without copper towards Phytophthora capsici (Example 28, Table 3). The data set is classed as cell-based. The settings on record: 48 h; for % Inhn Plus copper Observed: copper-plus AS medium (CuCl2, 50 μM).
For the next data set, the system named is Alternaria solani. Briefly: Compound 16 and copper materials against tomato early blight (Example 37, Tables 17-20). The data set is classed as in vivo, Alternaria solani on tomato (Outdoor Girl).
Data set [5] relates to Colletotrichum lagenarium. Nature of the data set: Compound 16 and copper materials against cucumber anthracnose (Example 37, Tables 21-24). The data set is classed as in vivo, Colletotrichum lagenarium on cucumber (Bush Pickle).
For data set [6], the system named is Phytophthora infestans. Format: in vivo, Phytophthora infestans on tomato (Outdoor Girl).
The subject of data set [7] is Septoria tritici isolate USA-184. Nature of the data set: In vitro fungitoxicity of hydrazones with and without copper towards Septoria tritici (Example 30, Table 5). Format: cell-based. Conditions: Zymoseptoria tritici, 0.05 μg/mL.
For a further data set, the system named is Ustilago maydis. Nature of the data set: In vitro fungitoxicity of hydrazones with and without copper towards Ustilago maydis (Example 29, Table 4). The data set is classed as cell-based. Conditions: 1 μg/mL, 48 h.
[8] abbreviates: Phytophthora capsici, 0.039 μg/mL, copper-minus AS medium, read-out: % Inhn Minus copper Observed.
[9] abbreviates: Parastagonospora nodorum, 72 h, compound 0.05 μg/mL, copper-minus medium, read-out: LEPTNO % Inhn. Minus Copper Observed.

In turn, `O=C(N/N=C/c1cc(Cl)cc(Cl)c1O)c1c(Cl)cccc1Cl` [Example 43] came in with a melting point of 250 to 252 °C. In the data set with Phytophthora infestans [1], the “TLB % Control” value was determined as 68.8%. For the same molecule, the pest or weed control at 200 ppm in data set [2] was found to be 0%. Also, the inhibition at 0.1 µg/mL in [3] came out at 3.6%. Besides, the inhibition of growth at 0.156 µg/mL in [4] (Parastagonospora nodorum, 72 h, compound 0.156 μg/mL, copper-minus medium, read-out: LEPTNO % Inhn. Minus Copper Observed) was 14.2%. Besides, in [4] (compound 0.156 μg/mL), the “LEPTNO % Inhn. Plus Copper Observed” value was found to be 75.4%. Moreover, in the data set with Phytophthora capsici (0.039 μg/mL), the “% Inhn Plus copper Observed” value is 90.3%. For the same molecule, the inhibition of growth at 0.039 µg/mL in the data set with Phytophthora capsici (setting [8]) stood at 54.2%.

Turning to `O=C(N/N=C/c1cc(Cl)cc(Cl)c1O)c1ccc([N+](=O)[O-])cc1` [Example 76], the “TLB % Control” value with Phytophthora infestans [1] turned out to be 89.8%. Also, the pest or weed control at 200 ppm in [2] stood at 0%. Besides, in [3], the inhibition at 0.1 µg/mL stood at 92.8%. Moreover, the inhibition of growth at 0.05 µg/mL in data set [4] (setting [9]) is 0%. Further, the “LEPTNO % Inhn. Plus Copper Observed” value in [4] (compound 0.05 μg/mL) was 97.0%.

As for `O=C(N/N=C/c1cc(Cl)cc(Cl)c1O)c1ccccc1Br` [Example 84], the “TLB % Control” value with Phytophthora infestans [1] is reported as 83.6%. Also, in data set [2], the pest or weed control at 200 ppm was found to be 37%. Further, the inhibition at 0.1 µg/mL in data set [3] amounted to 6.7%. The inhibition of growth at 0.05 µg/mL in data set [4] (setting [9]) came to 5.6%. The “LEPTNO % Inhn. Plus Copper Observed” value in [4] (compound 0.05 μg/mL) was 95.5%. Further, the “% Inhn Plus copper Observed” value with Phytophthora capsici (0.039 μg/mL) stood at 95.0%. In addition, the inhibition of growth at 0.039 µg/mL with Phytophthora capsici (setting [8]) was determined as 47.5%.

Turning to `O=C(N/N=C/c1cc(Cl)cc(Cl)c1O)c1cccc(Cl)c1` [Example 70], in the data set with Phytophthora infestans [1], the “TLB % Control” value stood at 93.1%. Also, in data set [2], the pest or weed control at 200 ppm was determined as 0%. Moreover, the inhibition at 0.1 µg/mL in [3] was determined as 29.4%. Besides, the inhibition of growth at 0.05 µg/mL in data set [4] (setting [9]) is 19.6%. In addition, the “LEPTNO % Inhn. Plus Copper Observed” value in [4] (compound 0.05 μg/mL) is given as 98.2%.

For `Cc1ccccc1C(=O)N/N=C/c1cc(Cl)cc(Cl)c1O` [Example 77], the “TLB % Control” value with Phytophthora infestans [1] is listed as 55.5%. Moreover, the pest or weed control at 200 ppm in [2] was determined as 0%. Also, the inhibition at 0.1 µg/mL in data set [3] worked out at 10.6%. For the same molecule, the inhibition of growth at 0.05 µg/mL in data set [4] (setting [9]) amounted to 7.6%. Also, in data set [4] (compound 0.05 μg/mL), the “LEPTNO % Inhn. Plus Copper Observed” value worked out at 96.1%.

Turning to `O=C(N/N=C/c1cc(Cl)cc(Cl)c1O)c1ccc(OC(F)(F)F)cc1` [Example 100], the melting point is 220 to 229 °C. For the same molecule, in the data set on Phytophthora infestans [1], the “TLB % Control” value worked out at 74.2%. In addition, in [2], the pest or weed control at 200 ppm worked out at 0%. The inhibition at 0.1 µg/mL in [3] came out at 24.7%. Also, the inhibition of growth at 0.05 µg/mL in data set [4] (setting [9]) was 8.2%. Also, the “LEPTNO % Inhn. Plus Copper Observed” value in data set [4] (compound 0.05 μg/mL) amounted to 97.0%. Besides, the “% Inhn Plus copper Observed” value in the data set on Phytophthora capsici (0.039 μg/mL) stood at 88.8%. Also, in the data set with Phytophthora capsici (setting [8]), the inhibition of growth at 0.039 µg/mL was 10%.

As to `O=C(N/N=C/c1cc(Cl)cc(Cl)c1O)c1ccccc1[N+](=O)[O-]` [Example 96], the “TLB % Control” value in the data set on Phytophthora infestans [1] is reported as 78.2%. Also, the pest or weed control at 200 ppm in data set [2] worked out at 0%. In addition, the inhibition at 0.1 µg/mL in data set [3] worked out at 10.7%. In addition, the inhibition of growth at 0.05 µg/mL in data set [4] (setting [9]) was 1.2%. The “LEPTNO % Inhn. Plus Copper Observed” value in [4] (compound 0.05 μg/mL) came to 93.6%. Besides, the “% Inhn Plus copper Observed” value with Phytophthora capsici (0.039 μg/mL) stood at 91.9%. The inhibition of growth at 0.039 µg/mL with Phytophthora capsici (setting [8]) amounted to 55.2%.

For the molecule `O=C(N/N=C/c1cc(Cl)cc(Cl)c1O)c1ccccc1` [Compound 16], the “% Control of Tomato Early Blight” value in the data set with Alternaria solani (hydrazone 10 μM alone) is listed as 3.9%; in the data set with Alternaria solani (hydrazone 50 μM alone), 8%; with Alternaria solani (hydrazone 200 μM alone), 28.4%; with Alternaria solani (hydrazone 400 μM alone), 32.4%. The “% Control of Cucumber Anthracnose” value in data set [5] (hydrazone 10 μM alone) came to 10%; in data set [5] (hydrazone 50 μM alone), 33.8%; in [5] (hydrazone 200 μM alone), 63.8%; in data set [5] (hydrazone 400 μM alone) it was 70.8%. Also, the “% Control of Tomato Late Blight” value came out at 1.5% with Phytophthora infestans [6] (hydrazone 10 μM alone), 11.3% with Phytophthora infestans [6] (hydrazone 50 μM alone), 21.4% in the data set with Phytophthora infestans [6] (hydrazone 200 μM alone) and 25.7% in the data set with Phytophthora infestans [6] (hydrazone 400 μM alone).

As to `O=C(N/N=C/c1cc(Cl)cc(Cl)c1O)c1cc(Cl)ccc1Cl` [Example 83], the melting point lay in the range of 189 to 191 °C. Also, in the data set with Phytophthora infestans [1], the “TLB % Control” value came out at 60.6%. Besides, the pest or weed control at 200 ppm in [2] was determined as 38%. The inhibition at 0.1 µg/mL in data set [3] stood at 27.9%. Moreover, in data set [4] (setting [9]), the inhibition of growth at 0.05 µg/mL is 5.9%. Further, in data set [4] (compound 0.05 μg/mL), the “LEPTNO % Inhn. Plus Copper Observed” value turned out to be 98.0%. Besides, the “% Inhn Plus copper Observed” value in the data set with Phytophthora capsici (0.039 μg/mL) was 96.2%. For the same molecule, in the data set with Phytophthora capsici (setting [8]), the inhibition of growth at 0.039 µg/mL worked out at 27.9%.

Turning to `O=C(N/N=C/c1cc(Cl)cc(Cl)c1O)c1ccccc1O` [Example 69], in the data set with Phytophthora infestans [1], the “TLB % Control” value is 90.8%. In addition, in data set [2], the pest or weed control at 200 ppm amounted to 25%. In [3], the inhibition at 0.1 µg/mL stood at 32.4%. Moreover, the inhibition at 0.05 µg/mL is 0% in data set [7] (Colby formula, CuCl2, read-out: % Inhibition Plus copper Predicted); 0% in data set [7] (copper-minus medium, 90 h, read-out: % Inhibition Minus copper Observed); 96.7% in [7] (copper-plus medium CuCl2, 90 h, read-out: % Inhibition Plus copper Observed). Moreover, the inhibition of growth at 0.05 µg/mL in data set [4] (setting [9]) was found to be 19.3%; in the data set with Phytophthora capsici (Phytophthora capsici, 0.050 μg/mL, copper-minus AS medium, read-out: % Inhn Minus copper Observed) it was 0%. The “LEPTNO % Inhn. Plus Copper Observed” value in [4] (compound 0.05 μg/mL) is on record as 96.9%. Also, the “% Inhn. Plus copper Observed” value with Ustilago maydis (copper-plus medium (CuCl2, 10 μM)) is 96.2%. For the same molecule, in the data set on Ustilago maydis (Mycosarcoma maydis, copper-minus medium, read-out: % Inhn. Minus copper Observed), the inhibition of growth at 1 µg/mL stood at 0%. Also, in the data set with Phytophthora capsici (0.050 μg/mL), the “% Inhn Plus copper Observed” value is reported as 87.6%.
